Results on 2 compounds are retold here after EP3892275A1, “AEROSOLIZATION OF HCQ OR ITS METABOLITES FOR THE TREATMENT OF LUNG INFECTIONS” (INSERM (Institut National de la Santé et de la Recherche …, priority 2020, dated 2021).

The structures appear in SMILES notation.

Data set [1] is described as follows: Behaviour in water (solubility, aggregation).
Another data set concerns COVID. To be noted: references 1,2; cited from earlier work.
A further data set deals with lung. The note with it: aerosol delivery in animals; cited from earlier work.

For the compound `CC(CCCNCCO)Nc1ccnc2cc(Cl)ccc12` (stereo not drawn) [DHCQ, N-desethylhydroxychloroquine], in data set [1], the “aggregation when dissolved in water” value is listed as “do not aggregate” and the solubility in water result is “water-soluble”.
`CCN(CCO)CCCC(C)Nc1ccnc2cc(Cl)ccc12.O=S(=O)(O)O` (stereo not drawn) [HCQ, 2-[[4-[(7-Chloro-4-quinolyl)amino]pentyl]ethylamino] ethanol sulfate (1:1)]: in the data set on COVID, the “antiviral activity in vitro at a cellular level” value is listed as “highly potent antiviral drug”. In addition, in the data set with lung, the “anti-inflammatory effect on the lung” value was “rapid and potent anti-inflammatory effect on the lung”. In data set [1], the “aggregation when dissolved in water” value is reported as “do not aggregate” and the solubility in water result was “water-soluble”.
